Measured values reported in ChEMBL document CHEMBL1152576, “E-Combretastatin and E-resveratrol structural modifications: antimicrobial and cancer cell growth inhibitory beta-E-nitrostyrenes” (Bioorg Med Chem, 2009).
Values after ≈ are worked out from the molar mass of the structure shown. Active and inactive are the calls of the source. No cut-off for these calls is given here.

Test system: OVCAR-3
Experiment: Cytotoxicity against human OVCAR-3 cells after 48 hrs by sulforhodamine B assay
Assay type: functional
Conditions: not given

Compound | GI50
Oc1ccc(/C=C\c2cc(O)cc(O)c2)cc1 [CIS-RESVERATROL] | inactive
COc1ccc(/C=C/[N+](=O)[O-])cc1OP(=O)([O-])[O-].[Na+].[Na+] | inactive
CCOc1ccc(/C=C/[N+](=O)[O-])cc1 | inactive

Test system: P388
Experiment: Cytotoxicity against mouse P388 cells after 48 hrs by sulforhodamine B assay
Assay type: functional
Conditions: P388, 48 h, read-out: ED50 (the source's name)

Compound | EC50 [µg/mL]
COc1ccc(/C=C/[N+](=O)[O-])cc1OP(=O)([O-])[O-].[Na+].[Na+] | 5.7
CCOc1ccc(/C=C/[N+](=O)[O-])cc1 | 3.8 (≈ 19.7 µM)

Test system: Stenotrophomonas maltophilia
Experiment: Antimicrobial activity against Stenotrophomonas maltophilia ATCC 13637 assessed clear zone in inhibition per disk by CLSI disk diffusion susceptibility assay
Assay type: functional
Conditions: not given

Compound | MIC [µg]
COc1ccc(/C=C/[N+](=O)[O-])cc1OP(=O)([O-])[O-].[Na+].[Na+] | >100
CCOc1ccc(/C=C/[N+](=O)[O-])cc1 | >100

Test system: Candida albicans
Experiment: Antimicrobial activity against Candida albicans ATCC 90028 assessed clear zone in inhibition per disk by CLSI disk diffusion susceptibility assay
Assay type: functional
Conditions: not given

Compound | MIC [µg]
COc1ccc(/C=C/[N+](=O)[O-])cc1OP(=O)([O-])[O-].[Na+].[Na+] | >100
CCOc1ccc(/C=C/[N+](=O)[O-])cc1 | 3.12

Test system: Streptococcus pneumoniae
Experiment: Antimicrobial activity against Streptococcus pneumoniae ATCC 6303 assessed clear zone in inhibition per disk by CLSI disk diffusion susceptibility assay
Assay type: functional
Conditions: not given

Compound | MIC [µg]
COc1ccc(/C=C/[N+](=O)[O-])cc1OP(=O)([O-])[O-].[Na+].[Na+] | >100
CCOc1ccc(/C=C/[N+](=O)[O-])cc1 | 12.5

Test system: MCF7
Experiment: Cytotoxicity against human MCF7 cells after 48 hrs by sulforhodamine B assay
Assay type: functional
Conditions: MCF7, 48 h

Compound | GI50 [µg/mL]
COc1ccc(/C=C/[N+](=O)[O-])cc1OP(=O)([O-])[O-].[Na+].[Na+] | 4.3
CCOc1ccc(/C=C/[N+](=O)[O-])cc1 | 1.1 (≈ 5.69 µM)

Test system: Escherichia coli
Experiment: Antimicrobial activity against Escherichia coli ATCC 25922 assessed clear zone in inhibition per disk by CLSI disk diffusion susceptibility assay
Assay type: functional
Conditions: not given

Compound | MIC [µg]
COc1ccc(/C=C/[N+](=O)[O-])cc1OP(=O)([O-])[O-].[Na+].[Na+] | >100
CCOc1ccc(/C=C/[N+](=O)[O-])cc1 | >100

Test system: Enterococcus faecalis
Experiment: Antimicrobial activity against Enterococcus faecalis ATCC 29212 assessed clear zone in inhibition per disk by CLSI disk diffusion susceptibility assay
Assay type: functional
Conditions: not given

Compound | MIC [µg]
COc1ccc(/C=C/[N+](=O)[O-])cc1OP(=O)([O-])[O-].[Na+].[Na+] | >100
CCOc1ccc(/C=C/[N+](=O)[O-])cc1 | 50

Test system: SK-MEL-5
Experiment: Cytotoxicity against human SK-MEL-5 cells after 48 hrs by sulforhodamine B assay
Assay type: functional
Conditions: not given

Compound | GI50
Oc1ccc(/C=C\c2cc(O)cc(O)c2)cc1 [CIS-RESVERATROL] | inactive
COc1ccc(/C=C/[N+](=O)[O-])cc1OP(=O)([O-])[O-].[Na+].[Na+] | inactive
CCOc1ccc(/C=C/[N+](=O)[O-])cc1 | inactive

Test system: DU-145
Experiment: Cytotoxicity against human DU145 cells after 48 hrs by sulforhodamine B assay
Assay type: functional
Conditions: DU-145, 48 h

Compound | GI50 [µg/mL]
COc1ccc(/C=C/[N+](=O)[O-])cc1OP(=O)([O-])[O-].[Na+].[Na+] | 4
CCOc1ccc(/C=C/[N+](=O)[O-])cc1 | 2.2 (≈ 11.4 µM)

Test system: SF-295
Experiment: Cytotoxicity against human SF295 cells after 48 hrs by sulforhodamine B assay
Assay type: functional
Conditions: not given

Compound | GI50
Oc1ccc(/C=C\c2cc(O)cc(O)c2)cc1 [CIS-RESVERATROL] | inactive
COc1ccc(/C=C/[N+](=O)[O-])cc1OP(=O)([O-])[O-].[Na+].[Na+] | inactive
CCOc1ccc(/C=C/[N+](=O)[O-])cc1 | inactive

Test system: Micrococcus luteus
Experiment: Antimicrobial activity against Micrococcus luteus Presque Isle 456 assessed clear zone in inhibition per disk by CLSI disk diffusion susceptibility assay
Assay type: functional
Conditions: not given

Compound | MIC [µg]
COc1ccc(/C=C/[N+](=O)[O-])cc1OP(=O)([O-])[O-].[Na+].[Na+] | >100
CCOc1ccc(/C=C/[N+](=O)[O-])cc1 | 50

Test system: Cryptococcus neoformans
Experiment: Antimicrobial activity against Cryptococcus neoformans ATCC 90112 assessed clear zone in inhibition per disk by CLSI disk diffusion susceptibility assay
Assay type: functional
Conditions: not given

Compound | MIC [µg]
COc1ccc(/C=C/[N+](=O)[O-])cc1OP(=O)([O-])[O-].[Na+].[Na+] | >100
CCOc1ccc(/C=C/[N+](=O)[O-])cc1 | 1.56

Test system: BXPC-3
Experiment: Cytotoxicity against human BxPC3 cells after 48 hrs by sulforhodamine B assay
Assay type: functional
Conditions: BXPC-3, 48 h

Compound | GI50 [µg/mL]
COc1ccc(/C=C/[N+](=O)[O-])cc1OP(=O)([O-])[O-].[Na+].[Na+] | > 10
CCOc1ccc(/C=C/[N+](=O)[O-])cc1 | 1.2 (≈ 6.21 µM)

Test system: not listed separately
Experiment: Inhibition of tubulin polymerization
Conditions: not given

Compound | IC50 [µM]
COc1ccc(/C=C/[N+](=O)[O-])cc1OP(=O)([O-])[O-].[Na+].[Na+] | 18
CCOc1ccc(/C=C/[N+](=O)[O-])cc1 | 5.5

Test system: SF-268
Experiment: Cytotoxicity against human SF268 cells after 48 hrs by sulforhodamine B assay
Assay type: functional
Conditions: SF-268, 48 h

Compound | GI50 [µg/mL]
Oc1ccc(/C=C\c2cc(O)cc(O)c2)cc1 [CIS-RESVERATROL] | 5 (≈ 21.9 µM)
COc1ccc(/C=C/[N+](=O)[O-])cc1OP(=O)([O-])[O-].[Na+].[Na+] | 4.2
CCOc1ccc(/C=C/[N+](=O)[O-])cc1 | 1.8 (≈ 9.32 µM)

Test system: KM-20L2
Experiment: Cytotoxicity against human KM20L2 cells after 48 hrs by sulforhodamine B assay
Assay type: functional
Conditions: KM-20L2, 48 h

Compound | GI50 [µg/mL]
Oc1ccc(/C=C\c2cc(O)cc(O)c2)cc1 [CIS-RESVERATROL] | 22 (≈ 96.4 µM)
COc1ccc(/C=C/[N+](=O)[O-])cc1OP(=O)([O-])[O-].[Na+].[Na+] | > 10
CCOc1ccc(/C=C/[N+](=O)[O-])cc1 | 2.4 (≈ 12.4 µM)

Test system: Neisseria gonorrhoeae
Experiment: Antimicrobial activity against Neisseria gonorrhoeae ATCC 49226 assessed clear zone of inhibition measured per disk by CLSI disk diffusion susceptibility assay
Assay type: functional
Conditions: not given

Compound | MIC [µg]
COc1ccc(/C=C/[N+](=O)[O-])cc1OP(=O)([O-])[O-].[Na+].[Na+] | 50
CCOc1ccc(/C=C/[N+](=O)[O-])cc1 | 0.78

Test system: NCI-H460
Experiment: Cytotoxicity against human NCI-H460 cells after 48 hrs by sulforhodamine B assay
Assay type: functional
Conditions: NCI-H460, 48 h

Compound | GI50 [µg/mL]
COc1ccc(/C=C/[N+](=O)[O-])cc1OP(=O)([O-])[O-].[Na+].[Na+] | 5.8
CCOc1ccc(/C=C/[N+](=O)[O-])cc1 | 1.9 (≈ 9.83 µM)

Test system: A498
Experiment: Cytotoxicity against human A498 cells after 48 hrs by sulforhodamine B assay
Assay type: functional
Conditions: not given

Compound | GI50
Oc1ccc(/C=C\c2cc(O)cc(O)c2)cc1 [CIS-RESVERATROL] | inactive
COc1ccc(/C=C/[N+](=O)[O-])cc1OP(=O)([O-])[O-].[Na+].[Na+] | inactive
CCOc1ccc(/C=C/[N+](=O)[O-])cc1 | inactive

Test system: Staphylococcus aureus
Experiment: Antimicrobial activity against Staphylococcus aureus ATCC 29213 assessed clear zone in inhibition per disk by CLSI disk diffusion susceptibility assay
Assay type: functional
Conditions: not given

Compound | MIC [µg]
COc1ccc(/C=C/[N+](=O)[O-])cc1OP(=O)([O-])[O-].[Na+].[Na+] | >100
CCOc1ccc(/C=C/[N+](=O)[O-])cc1 | 25

Test system: Enterobacter cloacae
Experiment: Antimicrobial activity against Enterobacter cloacae ATCC 13047 assessed clear zone in inhibition per disk by CLSI disk diffusion susceptibility assay
Assay type: functional
Conditions: not given

Compound | MIC [µg]
COc1ccc(/C=C/[N+](=O)[O-])cc1OP(=O)([O-])[O-].[Na+].[Na+] | >100
CCOc1ccc(/C=C/[N+](=O)[O-])cc1 | >100
